Experimental data as given in patent US6806230B1, “Pyrimidine derivatives and herbicides containing them” (Kumiai Chemical Industry Co., Ltd., priority 1999, dated 2004).

Tests used:
Assay type in all cases: in vivo
monochoria (Mo) = assay: Test Example 1: herbicidal effects by flooded paddy field treatment; design: herbicidal effects, Mo (monochoria):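 0-5 growth inhibition grade; 5 = over 90%; 4 = 70-90%; 3 = 50-70%; 2 = 30-50%; 1 = 10-30%; 0 = under 10%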; conditions: dose 100 g active ingredient per 10 ares, examined on the 21st day after treatment, standards of Table 44
Protocol: (§1) In a 100 cm^2 plastic pot, paddy field soil was filled and paddled. Then, seeds of barnyard grass (Eo) and monochoria (Mo) were sown, and water was introduced to a depth of 3 cm. Next day, a wettable powder prepared in accordance with Formulation Example 1 was diluted with water and dropwise applied to the water surface. The dose was 100 g of the active ingredient per 10 ares. Thereafter, cultivation was carried out in a green house, and on the 21st day after the treatment, the herbicidal effects were examined in accordance with the standards as identified in Table 44.

barnyard grass (Eo) = assay: as above; design: herbicidal effects, Eo (barnyard grass):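 0-5 growth inhibition grade; 5 = over 90%; 4 = 70-90%; 3 = 50-70%; 2 = 30-50%; 1 = 10-30%; 0 = under 10%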; conditions: dose 100 g active ingredient per 10 ares, examined on the 21st day after treatment, standards of Table 44
Protocol: as §1

barnyard grass (Ec) = assay: Test Example 2: herbicidal effects by upland soil treatment; design: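 0-5 growth inhibition grade; 5 = over 90%; 4 = 70-90%; 3 = 50-70%; 2 = 30-50%; 1 = 10-30%; 0 = under 10%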; conditions: dose 100 g active ingredient per 10 ares, examined on the 21st day after treatment
Protocol: In a 80 cm^2 plastic pot, upland soil was filled, and seeds of barnyard grass (Ec) and green foxtail (Se) were sown and covered with soil. A wettable powder prepared in accordance with Formulation Example 1 was diluted with water and uniformly applied to the soil surface by means of a small size spray at a rate of 100 l per 10 ares, so that the dose of the active ingredient would be 100 g per 10 ares. Thereafter, cultivation was carried out in a green house, and on the 21st day after the treatment, the herbicidal effects were examined in accordance with the standards as identified in Table 44.

SMILES	herbicidal effects, Mo (monochoria) (monochoria (Mo))	herbicidal effects, Eo (barnyard grass) (barnyard grass (Eo))	Ec (herbicidal effects, index) (barnyard grass (Ec))
CSCC(c1cncnc1C(F)(F)F)N(C)C(=O)Cc1ccc(Cl)cc1 (racemic) [1-414]	5	5	4
CC(C)c1ncncc1C(C(C)C)N(C)C(=O)N(C)c1ccc(F)cc1 (racemic) [1-429]	5	5	5
CCc1ncncc1C(C(C)C)N(C)C(=O)Cc1ccc(F)cc1 (racemic) [1-433]	5	5	5
CCC(c1cncnc1C(C)C)N(C)C(=O)Cc1ccc(Cl)cc1 (racemic) [1-438]	5	5	5
CCOC(OCC)C(c1cncnc1C(C)C)N(C)C(=O)OCc1ccccc1 (racemic) [1-458]	5	5	5
COc1ccc(N(C)C(=O)N(C)C(c2cncnc2C(F)(F)F)C(C)C)cc1 (racemic) [1-460]	5	5	5
CCOC(=O)CN(C(=O)Cc1ccccc1)C(c1cncnc1C(F)(F)F)C(C)C (racemic) [1-476]	5	5	5
CON=Cc1ncncc1C(C(C)C)N(C)C(=O)Cc1ccc(C)cc1 (racemic) [1-499]	5	5	5
CC(C)C(c1cncnc1C=NO)N(C)C(=O)Cc1ccc(Cl)cc1 (racemic) [1-502]	5	5	4
C=CCN(C(=O)Cc1ccccc1)C(c1cncnc1C(F)(F)F)C(C)C (racemic) [1-518]	5	5	5
CC(C)C(c1cncnc1C=O)N(C)C(=O)Cc1ccc(Cl)cc1 (racemic) [1-524]	5	5	5
Cc1ccccc1C(c1cncnc1C(F)(F)F)N(C)C(=O)Cc1ccccc1 (racemic) [1-550]	5	5	5
CN(C(=O)Cc1ccc(F)cc1)C(c1ccc(F)cc1F)c1cncnc1C(F)(F)F (racemic) [1-555]	5	5	5
C#CCN(C(=O)Cc1ccc(C)cc1)C(c1cncnc1CC)C(C)C (racemic) [1-561]	5	5	5
CC(C)C(c1cncnc1C(F)(F)Cl)N(C)C(=O)Oc1ccc([N+](=O)[O-])cc1 (racemic) [1-640]	5	5	4
CC(C)C(c1cncnc1C(F)(F)Cl)N(C)C(=S)Oc1ccccc1 (racemic) [1-641]	5	5	5
CC(C)C(c1cncnc1C(F)(F)F)N(C)C(=O)Cc1cccs1 (racemic) [2-6]	5	5	5

SMILES	herbicidal effects, Mo (monochoria) (monochoria (Mo))	herbicidal effects, Eo (barnyard grass) (barnyard grass (Eo))	Ec (herbicidal effects, index) (barnyard grass (Ec))
CCN(C(=O)Cc1cccs1)C(c1cncnc1C(F)(F)F)C(C)C (racemic) [2-9]	5	5	5
CCN(C(=O)Cc1ccsc1)C(c1cncnc1C(F)(F)F)C(C)C (racemic) [2-10]	5	5	5
CN(C(=O)Cc1cccs1)C(c1cncnc1C(F)(F)F)C(C)(C)C (racemic) [2-13]	5	5	5
CN(C(=O)Cc1ccsc1)C(c1cncnc1C(F)(F)F)C(C)(C)C (racemic) [2-14]	5	5	5
CC(C)c1ncncc1C(C(C)C)N(C)C(=O)Cc1ccsc1 (racemic) [2-24]	5	5	5
CC(C)C(c1cncnc1C(F)(F)F)N(C)C(=O)COc1cncc(Cl)c1 (racemic) [2-44]	5	5	5
CC(C)CC(c1cncnc1C(F)(F)F)N(C)C(=O)Cc1ccsc1 (racemic) [2-52]	5	5	5
Cc1ccc(CC(=O)N(C)C(c2cncnc2C(F)(F)F)C2(C)CC2)s1 (racemic) [2-59]	5	5	5
CC(C)C(c1cncnc1C(F)(F)F)N(C)C(=O)N(C)c1ccsc1 (racemic) [2-63]	5	5	5
CC(C)C(c1cncnc1C(F)(F)F)N(C)C(=O)N(C)C1CCCCC1 (racemic) [2-72]	5	5	5
COCc1ncncc1C(C(C)C)N(C)C(=O)Cc1ccc(Cl)s1 (racemic) [2-77]	5	5	5
CN(C(=O)Cc1ccc(Cl)cc1F)C(c1cncnc1C(F)(F)F)C(C)(C)C (racemic) [Compound 1-249]	5	5	5
CC(C)c1ncncc1C(C(C)C)N(C)C(=O)Cc1ccc(Cl)cc1F (racemic) [Compound 1-254]	5	5	5
CN(C(=O)Cc1cccc(F)c1)C(c1cncnc1C(F)(F)F)C(C)(C)C (racemic) [Compound 1-265]	5	5	5
CN(C(=O)Cc1cccc(F)c1)C(c1ccccc1)c1cncnc1C(F)(F)F (racemic) [Compound 1-266]	5	5	5
CN(C(=O)Cc1ccc(F)cc1F)C(c1cncnc1C(F)(F)F)C(C)(C)C (racemic) [Compound 1-273]	5	5	5
CN(C(=O)Cc1ccc(F)cc1F)C(c1ccccc1)c1cncnc1C(F)(F)F (racemic) [Compound 1-274]	5	5	5
